Measurements taken from patent US20050075334A1, “Novel compounds” (priority 2001, published 2005).

Row | melting point | Structure (SMILES)
1 | > 250 °C | COC(=O)c1cccc2[nH]c(Sc3cccc4c(=O)cc[nH]c34)nc12 [Example 3, 2-(4-Oxo-1,4-dihydro-quinolin-8-ylsulfanyl)-1H-benzoimidazole-4-carboxylic Acid Methyl Ester]
2 | 376 °C (dec.) | N#Cc1c(Cl)ccc2[nH]c(Sc3cccc4c(=O)cc[nH]c34)nc12 [Example 8, 5-Chloro-2-[(4-oxo-1,4-dihydroquinolin-8-yl)thio]-1H-benzimidazole-4-carbonitrile]
3 | 243 to 246 °C | C[S+]([O-])c1c[nH]c2c(Sc3nc4cc(Cl)ccc4[nH]3)ccc([N+](=O)[O-])c12 (stereo not drawn) [Example 16, 5-Chloro-2-([3-(methylsulfinyl)-4-nitro-1H-indol-7-yl]thio}-1H-benzimidazole]
